Target: T1, hTAS1R1 L223A/rTAS1R3 (Homo sapiens, UniProt Q7RTX1, L223A)
T1 construct: UniProtKB number Q7RTX1–1); expressed in transfected cells; host or cells: HEK293T/17 (ATCC CRL-11268)
T1 sequence (Q7RTX1 21-841 L223A): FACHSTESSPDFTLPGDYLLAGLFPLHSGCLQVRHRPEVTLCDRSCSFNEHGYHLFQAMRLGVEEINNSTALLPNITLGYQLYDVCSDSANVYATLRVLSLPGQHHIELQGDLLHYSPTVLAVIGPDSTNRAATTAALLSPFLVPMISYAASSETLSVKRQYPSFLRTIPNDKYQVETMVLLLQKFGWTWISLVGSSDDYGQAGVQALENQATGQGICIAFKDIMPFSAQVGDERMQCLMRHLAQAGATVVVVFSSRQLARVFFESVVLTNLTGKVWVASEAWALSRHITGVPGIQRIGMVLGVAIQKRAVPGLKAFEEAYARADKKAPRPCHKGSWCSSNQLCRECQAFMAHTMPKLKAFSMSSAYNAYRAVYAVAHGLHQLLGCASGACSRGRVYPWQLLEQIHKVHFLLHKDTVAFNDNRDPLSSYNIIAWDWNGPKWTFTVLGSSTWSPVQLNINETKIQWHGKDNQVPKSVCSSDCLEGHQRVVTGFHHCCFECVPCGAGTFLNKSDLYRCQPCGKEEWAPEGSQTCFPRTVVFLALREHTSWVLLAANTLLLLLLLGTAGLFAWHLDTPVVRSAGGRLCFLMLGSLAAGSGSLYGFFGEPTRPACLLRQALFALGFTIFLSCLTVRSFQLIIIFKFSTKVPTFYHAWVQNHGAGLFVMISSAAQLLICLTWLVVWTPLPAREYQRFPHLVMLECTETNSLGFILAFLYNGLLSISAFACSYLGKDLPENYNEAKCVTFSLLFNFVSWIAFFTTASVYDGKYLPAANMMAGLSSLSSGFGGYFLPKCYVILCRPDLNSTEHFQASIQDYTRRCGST
T1 sequence (Q923K1 21-858 partner): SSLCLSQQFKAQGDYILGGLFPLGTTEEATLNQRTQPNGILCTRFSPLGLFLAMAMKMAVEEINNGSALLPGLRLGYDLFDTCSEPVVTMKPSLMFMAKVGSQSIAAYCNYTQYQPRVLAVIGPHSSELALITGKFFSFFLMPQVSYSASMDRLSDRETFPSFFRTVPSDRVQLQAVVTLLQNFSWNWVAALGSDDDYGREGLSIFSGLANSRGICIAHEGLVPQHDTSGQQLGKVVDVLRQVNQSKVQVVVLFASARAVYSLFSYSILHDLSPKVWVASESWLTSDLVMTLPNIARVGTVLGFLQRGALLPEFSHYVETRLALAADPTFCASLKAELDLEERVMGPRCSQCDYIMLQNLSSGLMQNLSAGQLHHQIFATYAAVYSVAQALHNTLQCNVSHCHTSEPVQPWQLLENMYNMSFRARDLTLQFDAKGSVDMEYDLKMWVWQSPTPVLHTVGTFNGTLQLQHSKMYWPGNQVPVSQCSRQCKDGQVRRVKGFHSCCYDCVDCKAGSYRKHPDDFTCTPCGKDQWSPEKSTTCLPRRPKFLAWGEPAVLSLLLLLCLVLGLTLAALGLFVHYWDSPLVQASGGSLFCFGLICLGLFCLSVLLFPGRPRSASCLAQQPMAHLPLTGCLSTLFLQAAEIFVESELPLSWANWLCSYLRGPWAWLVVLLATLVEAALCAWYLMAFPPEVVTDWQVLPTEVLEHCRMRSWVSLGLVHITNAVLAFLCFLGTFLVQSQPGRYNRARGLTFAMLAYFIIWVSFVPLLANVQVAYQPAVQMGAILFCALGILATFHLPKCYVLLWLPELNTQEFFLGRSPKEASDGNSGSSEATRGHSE
Assay: Calcium assay, hTAS1R1 mutant co-expressed with rTAS1R3
Type: cell-based, rat
Source text: Chimeric Gα proteins, such as Gα16Gust44, Gα16Gi3 or Gα15i2, are widely used in the functional expression of TAS1R receptors ([Backes et al., 2015]; [Suess et al., 2015]; [Toda et al., 2021], [Toda et al., 2013], [Toda et al., 2018]; [Zhang et al., 2008]). Chimeric Gα15i2 (([Toda et al., 2013]), Supplementary data) was generated by replacing the last five residues of the C-terminal tail of rat Gα15i2 (EINLL) (UniProt number G3V6N8; https://www.uniprot.org/uniprot/) with the counterpart sequence from human GNAI2 (DCGLF) (UniProt number P04899-1) and cloning into the pcDNA3.1/Hygro vector (Invitrogen, Thermo Fisher Scientific, Illkirch, France) between the HindIII and NotI restriction sites, resulting in the plasmid pcDNA3.1-Gα15i2. Chimeric Gα16Gust44 construct have already been reported ([Raliou et al., 2011]). Briefly, Gα16Gust44 was generated by replacing the C-terminal of Gα16 with the C-terminal 44 residues of gustducin. As previously described, hTAS1R1 was amplified from human fungiform papillae cDNA and cloned and inserted into pcDNA3 (Invitrogen), generating pcDNA3-TAS1R1-WT (wild-type) ([Raliou et al., 2011]). […] The cDNA coding region of rTAS1R3 was synthesized with optimized-codon usage for human expression (Genewiz) and was cloned and inserted into the mammalian pcDNA4/myc-HisA (Invitrogen) expression vector between the EcoRI and NotI restriction sites, resulting in the plasmid pcDNA4-rTAS1R3. […] The sequence integrity of all the plasmid constructs was verified via automated DNA sequencing (Genewiz).
The hTAS1R1 mutants were co-expressed with the rTAS1R3 subunit in HEK293 cells. […] As a control, the functionality of the mutated receptors was checked after stimulation with S807 (Fig. S8), which interacts with TAS1R1-TMD ([Zhang et al., 2008]).

Compound: N[C@@H](CCC(=O)N[C@@H](CS)C(=O)NCC(=O)O)C(=O)O [GSH, γ-L-glutamyl-L-cysteinyl-glycine]
- EC50: 2.32 ± 0.308 mM
- effect of the added compound (1 mM) on the response to L-Glu (L223A): synergy was observed
- response to the agonist alone, vs WT (L223A): significantly increased the initial amplitude
- Max ∆F/F0 (L223A, GSH): 1.71 ± 0.09
- R1 = mutant EC50/WT EC50 (L223A, GSH): 0.9

Compound: N[C@@H](CCC(=O)O)C(=O)O [L-Glu, L-glutamic acid, reference compound]
- response to the agonist alone, vs WT (L223A): increased the amplitude

From paper PMC12615753, “Glutathione as a taste modulator: molecular mechanisms of interaction with umami and sweet taste receptors” (Food Chemistry: Molecular Sciences, 2025)
